Measurements taken from patent US5003044A, “Peptide inhibitors of motor neuron attachment to s-laminin” (Washington University, priority 1989, dated 1991).
No end group written: not given here.

What was measured:
[1] = tested on: adhesion of ciliary neurons to pET-RK36 s-laminin fragment; conditions: for Inhibition of neuronal adhesion to pET-RK36 / s-laminin (in words): concentration not given
[2] = tested on: neurons and neuron-like cells; test: Cell attachment assay, each cell type of Table 1; format: cell-based; conditions: for each cell type, Table 1 footnote
Protocol: (§1) Substrates were immobilized to tissue culture dishes as described by Lagenaur and Lemmon, Proc. Natl. Acad. Sci. USA 84, 7753-7757 (1987). Briefly, nitrocellulose (BA85; Schleicher and Schuell, Keene, N.H.) was dissolved in methanol (1 cm^2 /ml), applied to tissue culture wells (90 µl per 16 mm diameter well) and allowed to dry. Drops (1.5-3 μl) of substrates in solution were applied and allowed to bind for 20 min. after which the drops were aspirated. Nonspecific binding sites on the nitrocellulose were then blocked by incubating wells with the following series of solutions: 10 mg/ml bovine serum albumin (BSA; Sigma) in PBS for ~1 min; 30 mg/ml BSA in PBS for 2-3 hr; Earles' Minimum Essential Medium (MEM) containing 2% fetal bovine serum and 25 mM HEPES, pH 7.4, for 5 min; PBS, twice briefly; and Earles' MEM containing 1 mg/ml BSA and 25 mM HEPES, pH 7.4, for 30 min at 37° C. in a humidified chamber containing 7% CO2. At this point, neurons were added, with or without synthetic peptides, and incubated for 2 hr at 37° C. Finally, the wells were washed twice with PBS pre-warmed to 37° and adherent cells were fixed in place with 2% paraformaldehyde and 2% glutaraldehyde in PBS.
Covault et al., J. Cell Biol. 105, 2479-2488 (1987). […]

[3] = tested on: dorsal root ganglion neurons; test: Cell attachment assay on immobilized substrata, dorsal root ganglion neurons; format: cell-based, chick; conditions: sensory neurons (cell type implied by context)
Protocol: as §1, with “Finally, the wells were washed twice with PBS pre-warmed to 37° and adherent cells were fixed in place with 2% paraformaldehyde and 2% glutaraldehyde in PBS.” left out
(§2) Ciliary neurons were selected for initial tests because many of these neurons normally form neuromuscular junctions on striated muscle fibers in vivo [Pilar et al., J. Neurophys. […] To extend these tests, it was determined whether neurons of other types also adhered to the s-laminin fragments. […]

ciliary ganglion neurons = test: Cell attachment assay on immobilized substrata, ciliary ganglion neurons; format: cell-based, chick
Protocol: as §1
Neurons were dissociated from chick ciliary ganglia as previously described by Nishi and Berg, Proc. Natl. Acad. Sci. USA 74, 5171-5175 (1977);
Covault et al., J. Cell Biol. 105, 2479-2488 (1987). Each well received ~5000 neurons, which corresponds to ~1 E8 ganglia, ~1.5 E10 ganglia, and ~2 E13 ganglia (E8, E10 and E13 are stages of development of the embryonic chick) [neuronal death is occurring over this time course; Landmessen and Pilar, J. Physiol. 241, 715-736 (1974)]. Chick dorsal root ganglia and optic tecta were dissociated in the same manner; each well received cells from 4-5 dorsal root ganglia or 0.25 optic tecta. For B35 and B104 cell lines, each well received 20,000 cells. For PC12 cells, each well received 5000 cells. In some tests, PC12 cells were grown with 50 ng/ml nerve growth factor (NGF) for 3-6 days before use. All cells were suspended in Earles' MEM containing 1 mg/ml BSA and 25 mM HEPES, pH 7.4, for addition to tissue culture wells.
Cell attachment assays were performed as described hereinbefore.

tectal neurons = test: Cell attachment assay on immobilized substrata, tectal neurons; format: cell-based, chick; conditions: 2 hr
Protocol: as §1, with “Finally, the wells were washed twice with PBS pre-warmed to 37° and adherent cells were fixed in place with 2% paraformaldehyde and 2% glutaraldehyde in PBS.” left out
as §2

Substance: AEKQLR [Peptide M511]
- Inhibition of neuronal adhesion to pET-RK36 / s-laminin (in words) [1]: inhibiting activity is not shown

Substance: AEKQLREQVGD [Peptide M51]
- IC50 [1]: 10 to 20 µM
- IC50 for inhibition of neuronal adhesion to pET-RK36 [1]: ~ 20 μg/ml

Substance: AEKQLREQVGDQYQTVRALAE [Peptide M5]
- IC50 [1]: 10 to 20 µM

Substance: KQLREQ [Peptide M512]
- Inhibition of neuronal adhesion to pET-RK36 / s-laminin (in words) [1]: inhibitory

Substance: LREQVG [Peptide M513]
- Inhibition of neuronal adhesion to pET-RK36 / s-laminin (in words) [1]: inhibitory

Substance: laminin
- Cells applied that adhered to laminin [2]: 20
- Fold more cells adhered to laminin than to s-laminin [3]: at least 10 fold
- Applied ciliary neurons adhered (ciliary ganglion neurons; 2 hour assay, optimal concentration of substrate on nitrocellulose): 30-40%
- Adhesion of ciliary neurons to substrate (FIG. 3) (ciliary ganglion neurons; 2 hr, laminin 100 μg/ml, pET-RK36 10 μg/ml): adhere well
- Optimal concentration in molar terms (ciliary ganglion neurons; Mr ~900,000 laminin, ~20,000 s-laminin fragment): ~ 0.5 μM
- Concentration of applied solution giving maximal adhesion (ciliary ganglion neurons; ciliary neurons): ~ 500 μg/ml
- Lowest concentration in solution with significant adhesion (ciliary ganglion neurons; ciliary neurons): 20 µg/mL
- Adhesion of tectal cells to substrate (FIG. 3) (tectal neurons): adhere well

Substance: poly-lysine
- More neurons adhered to poly-lysine than to either laminin or s-laminin (ciliary ganglion neurons; ciliary neurons, each stage E8-E13): 30-50%

Substance: β-galactosidase: pure β-galactosidase
- Attachment of ciliary neurons to recombinant proteins / bacterial extracts (FIG. 2) (ciliary ganglion neurons; control for vector-encoded sequences): no significant attachment
